Reference: patent publication US20260315431A1, “NANOMATERIAL ENCAPSULATED BIOFILM INHIBITORS FOR DENTAL CARIES TREATMENT” (THE UAB RESEARCH FOUNDATION, priority 2023, published 2026)
Values after ≈ are worked out from the molar mass of the structure shown. Like-named read-outs stand apart in the source and are kept apart here.

Legend:
S. mutans UA159 [1] = experiment: Biofilm inhibition, S. mutans UA159 (crystal violet, OD562); type: cell-based, Streptococcus mutans; conditions: for IC50 / inhibition at 50 µM: Streptococcus mutans; for inhibition at 50 µM: UA159, 50 μM; for S. mutans biofilm inhibition: 50 μM
Experimental: (§1) The bacterial strains, S. mutans UA159, S. gordonii DL1, and S. sanguinis SK36 were inoculated statically at 37° C. under 5% CO2 in Todd Hewitt Broth (THB) for 24 h. The cultures were then diluted with fresh THB (1:5) and reinoculated until optical density at 470 nm (OD470) reached 1. The optical density was read using BioTek 800TS microplate reader at 470 nm for bacterial growth and 562 nm for biofilm stained with crystal violet. Data was plotted in Graphpad Prism9.
Biofilm inhibition assays. Biofilm inhibition assays were performed in polystyrene microtiter 96 well plates. Stock solutions were prepared in chemically defined medium (CDM, JRH Biosciences, Lenexa, KS) with 2% sucrose, 1% bacteria cultures and various concentrations of the small molecule inhibitors to examine their activity against biofilm formation as described^69, 70. These stocks were assayed in 96 well plates in triplicate and incubated at 37° C. and 5% CO2 for 16 h. After reading optical density for bacterial growth, the plate was gently washed with water, dried, and stained with crystal violet, and then gently rinsed again with deionized water leaving the stained biofilm at the bottoms of the wells. Biofilms was dissolved in 200 μL of 30% acetic acid and absorbance at 562 nm was used read to determine biofilm biomass. Each assay was carried out at least in triplicate. Biofilm inhibitory concentration (IC50) of the compounds was determined by serial dilutions.
(§2) All bacterial strains (S. mutans UA159, S. gordonii DL1, and S. sanguinis SK36) were inoculated statically at 37° C. under 5% CO2 environment in Todd Hewitt Broth (THB) for 24 h^[61]. The cultures were then diluted with fresh THB (1:5) and reinoculated until the optical density at 470 nm reaches 1. The optical density was read using BioTek 800 TS absorbance reader at 470 nm for bacterial growth and 562 nm for biofilm stained with crystal violet. Data was plotted in Prism 10.0.2.
Biofilm inhibition assays were performed in polystyrene microtiter 96-well plates. Stock solutions were prepared in chemically defined medium (CDM) with 1% sucrose, 1% bacteria cultures and various concentrations of the small molecule inhibitors to examine their activity against biofilm formation as described^[62, 63]. These stocks were assayed in 96 well plates in triplicate and incubated at 37° C. and 5% CO2 for 16 h. After reading optical density for bacterial growth, the plate was washed, dried, and stained with 0.1% crystal violet which was again rinsed well with deionized water leaving the stained biofilm at the bottoms of the wells. This biofilm was dissolved in 200 μL of 30% acetic acid and absorbance at 562 nm was read to determine amount of biofilm formation. Each assay was carried out at least in triplicate. Biofilm inhibitor concentration (IC50) of the compounds was determined by serial dilutions from 0 μM-50 μM (1% DMSO).

S. mutans UA159 [2] = experiment: Planktonic growth, S. mutans UA159 (OD470); type: cell-based, Streptococcus mutans; conditions: for inhibition at 50 µM: Streptococcus mutans, UA159, read-out: planktonic growth inhibition of S. mutans, 50 μM
Experimental: as §1
(§3) S. mutans, S. gordonii, and S. sanguinis growth assays. Effects of compounds on S. mutans and commensal bacterial growth were evaluated using the growth assay as described^69. S. mutans UA159, S. gordonii DL1, S. sanguinis SK36, cultures were grown for 24 h under 5% CO2 at 37° C. These cultures were then reinoculated with fresh THB (1:5) until OD470=1 when the bacteria were ready to be used. Different concentrations of the inhibitor were assayed in chemically defined media (CDM) with 1% of the bacteria, 1% sucrose and 1% DMSO in 96 well plates. The 96 well plates were incubated under 5% CO2 at 37° C. for 16 h. Growth of the bacteria was read after 16 h at OD470. Each assay was carried out at least in triplicate.
as §2
as §3, with “Effects” for “S. mutans, S. gordonii, and S. sanguinis growth assays. Effects”, “PEHA5, PEHA6, HA5 or HA6” for “compounds”, “described^[62].” for “described^69.”, “PEHA5, PEHA6, HA5 or HA6” for “inhibitor”, “CDM” for “chemically defined media (CDM)”

[3] = Solubility in water containing 1% DMSO (UV spectroscopy); type: physicochemical; conditions: for solubility compared with IIIC5: comparison with IIIC5 (25 μg/mL); for solubility: organic solvent or mixture, water containing 1% DMSO
Experimental: Solubility of MA1-6 and HA2-6 were determined as reported^46 (Table 1).
General considerations. ^1H-NMR and ^13C-NMR spectra were recorded on Bruker Avance Neo 400 and Avance II 700 spectrometers using TMS or appropriate solvent signals as internal standard. The chemical shift values are given in parts per million (ppm) relative to the internal standard used and the coupling constants (J) are given in hertz (Hz). High resolution mass spectra (HRMS) were recorded using Waters AutoSpec-Ultima™ NT magnetic sector mass spectrometer with Electron Impact (EI) Ionization source. The mass analyzer is an electric-magnetic-electric (EBE) sector (a double focusing sector). Anhydrous solvents used for reactions were purchased in Sure-Seal™ bottles from Aldrich chemical company. Other chemical reagents were purchased from Aldrich or Fisher chemical companies and used as received. Reactions were monitored with thin layer chromatography (TLC), which was done on silica gel plates with fluorescent indicator (Silicycle, silica gel, UV254, 25 μm plates). The TLC spots were observed under UV light with the wavelengths 254 nm and 365 nm. The reaction mixtures were purified by column chromatography using Si gel (32-63 μm) from Dynamic Absorbent, Inc. Melting points were determined on a Mel-Temp II melting point apparatus and are uncorrected. All tested compounds have ≥95% purity as determined by HPLC. HPLC traces were obtained using Shimadzu SPD-M20A. Solubility of compounds were determined by UV-spectroscopy method using Agilent Cary 60 UV-Vis spectrophotometer. HPLC analysis of the final compounds were conducted using Kinetex 5 μm C18 100 Å, LC Column 150×4.6 mm, compound=3 mM, 20 μL injection, solvent: mobile phase buffer, Conditions: 60% MeCN/40% H2O/0.1% Formic acid (isocratic), HPLC method 0-10 min, Signals were analyzed using a 254 nm UV detector. A chromatogram of Mobile Phase Buffer (20 μL) was obtained for comparison.

[4] = water, 1% dmso; cited from earlier work
[5] = S. mutans UA159 biofilm, read-out: Biofilm IC50

SMILES | IC50 (S. mutans UA159 [1]; UA159, read-out: Biofilm IC50) | solubility [3] | inhibition at 50 µM (S. mutans UA159 [2]) | further results
O=C(C=Cc1ccccc1)c1ccccc1O [Compound 3a, 1-(2-Hydroxyphenyl)-3-phenyl-2-propen-1-one] | > 300 µM |  |  | 
COc1ccc(C=CC(=O)c2ccccc2O)cc1 [Compound 3b, 1-(2-Hydroxyphenyl)-3-(4′-methoxyphenyl)-2-propen-1-one] | > 300 µM |  |  | 
COc1ccc(C=CC(=O)c2ccccc2O)cc1OC [Compound 3c, 3-(3′,4′-Dimethoxyphenyl)-1-(2-hydroxyphenyl) prop-2-en-1-one] | > 300 µM |  |  | 
COc1cc(C=CC(=O)c2ccccc2O)cc(OC)c1 [Compound 3d, 3-(3′,5′-Dimethoxyphenyl)-1-(2-hydroxyphenyl) prop-2-en-1-one] | > 300 µM |  |  | 
COc1cc(OC)c(OC)cc1C=CC(=O)c1ccccc1O [Compound 3e, 1-(2-Hydroxyphenyl)-3-(2′,4′,5′-trimethoxyphenyl) prop-2-en-1-one] | > 300 µM |  |  | 
COc1cc(C=CC(=O)c2ccccc2O)cc(OC)c1OC [Compound 3f, 1-(2-Hydroxyphenyl)-3-(3′,4′,5′-trimethoxyphenyl) prop-2-en-1-one] | 181 µM |  |  | planktonic growth of S. mutans (S. mutans UA159 [2]; 50 μM): no growth inhibition; inhibition at 50 µM (S. mutans UA159 [1]): 40%
O=C1/C(=C/c2ccc(O)cc2)Oc2ccccc21 [HA2, 2-[(4′-Hydroxyphenyl)methylidene]-2,3-dihydro-1-benzofuran-3-one] | 18.8 ± 2.36 µM | 18.9 µg/mL (≈ 79.5 µM) | 60% | solubility compared with IIIC5 [3]: lower solubility than IIIC5; planktonic growth inhibition of S. mutans (S. mutans UA159 [2]; 50 μM): 70%; inhibition at 50 µM (S. mutans UA159 [1]): > 95%
O=C1/C(=C/c2ccc(O)c(O)c2)Oc2ccccc21 [HA3, 2-[(3′,4′-Dihydroxyphenyl)methylidene]-2,3-dihydro-1-benzofuran-3-one] | 30.7 µM |  | 40% | solubility ([3]; UV spectroscopy): 81.6 µg/mL (≈ 321 µM); inhibition at 50 µM (S. mutans UA159 [1]): ~80%; IC50 (S. mutans UA159 [1]; [5]): 30.7 µM
O=C1/C(=C/c2cc(O)cc(O)c2)Oc2ccccc21 [HA4, 2-[(3′,5′-Dihydroxyphenyl)methylidene]-2,3-dihydro-1-benzofuran-3-one] | 94.2 µM |  | 30% | solubility ([3]; UV spectroscopy): 76.5 µg/mL (≈ 301 µM); S. mutans biofilm inhibition (S. mutans UA159 [1]): did not show significant biofilm inhibition; IC50 (S. mutans UA159 [1]; [5]): 94.2 µM
O=C1C(=Cc2ccccc2)Oc2ccccc21 [MA1, 2-(Phenylmethylidene)-2,3-dihydro-1-benzofuran-3-one] | 33.6 ± 0.53 µM |  | 80% | solubility compared with IIIC5 [3]: lower solubility than IIIC5; solubility ([3]; UV spectroscopy): 8.51 ± 2 µg/mL (≈ 38.3 µM)
COc1ccc(/C=C2\Oc3ccccc3C2=O)cc1 [MA2, 2-[(4′-Methoxyphenyl)methylidene]-2,3-dihydro-1-benzofuran-3-one] | 108 µM | 16.2 µg/mL (≈ 64.3 µM) |  | solubility compared with IIIC5 [3]: lower solubility than IIIC5; IC50 (S. mutans UA159 [1]; UA159, read-out: Biofilm IC50 (unit inferred)): 108 µM
COc1ccc(/C=C2\Oc3ccccc3C2=O)cc1OC [MA3, 2-[(3′,4′-Dimethoxyphenyl)methylidene]-2,3-dihydro-1-benzofuran-3-one] | 49.4 µM | 36.3 µg/mL (≈ 128 µM) |  | S. mutans biofilm inhibition (S. mutans UA159 [1]): inactive; IC50 (S. mutans UA159 [1]; [5]): 49.4 µM
COc1cc(/C=C2\Oc3ccccc3C2=O)cc(OC)c1 [MA4, 2-[(3′,5′-Dimethoxyphenyl)methylidene]-2,3-dihydro-1-benzofuran-3-one] | > 300 µM | 19 µg/mL (≈ 67.2 µM) |  | solubility compared with IIIC5 [3]: lower solubility than IIIC5
COc1cc(OC)c(OC)cc1/C=C1\Oc2ccccc2C1=O [MA5, 2-[(2′,4′,5′-Trimethoxyphenyl)methylidene]-2,3-dihydro-1-benzofuran-3-one] | 52.8 µM | 42.4 µg/mL (≈ 136 µM) | 30% | inhibition at 50 µM (S. mutans UA159 [1]): 60%; IC50 (S. mutans UA159 [1]; [5]): 52.8 µM
COc1cc(/C=C2\Oc3ccccc3C2=O)cc(OC)c1OC [MA6, 2-[(3′,4′,5′-Trimethoxyphenyl)methylidene]-2,3-dihydro-1-benzofuran-3-one] | > 300 µM | 44.7 µg/mL (≈ 143 µM) |  | 
O=C(O)c1ccccc1O [Salicylic acid] |  |  |  | solubility [4]: 1880 ± 30 µg/mL (≈ 13600 µM)
